Measured values published in patent US20250360113A1, “ADMINISTRATION OF DHB TO INCREASE BENEFIT OF LOSING WEIGHT OF INTERMITTENT FASTING” (NANJING NUTRABUILDING BIO-TECH CO., LTD., priority 2023, published 2025).
Entries after “also recorded” stand apart in the source; their conditions may differ.

Assays:
[1] = Body weight and body composition of HFD obese mice given DHB with or without EODF; type: in vivo, C57BL/6 male mice
Description: 50 C57BL/6 male mice aged about 8 weeks, are randomly assigned to five study groups (GA, GB1, GB2, GB3, GB4) of ten mice each (one cage, n=5 per condition). Mice were maintained in a pathogen free condition under a strict 12 h light/dark cycle (0600/1800 h) with 12-15 cycles/hour of air change. Mice were provided with access to respective feed and water ad libitum as per experimental conditions. Mice were housed under controlled laboratory conditions of temperature and humidity at 23±2° C. and 50±10% RH, respectively.
Each study group consisted of ten animals, and treatment details of the individual study groups are given below: • Group A (GA, NC): Normal mice, maintained on normal diet (standard chow, 12% calories from fat; 23% calories from protein and 65% calories from carbohydrates) for 8 weeks, receiving neither EODF nor DHB treatment. • Group B1 (GB1): Obese mice, maintained on high fat diet (HFD, 60% calories from fat, 20% calories from protein, 20% calories from carbohydrate) for 8 weeks, receiving neither EODF nor DHB treatment. • Group B2 (GB2): Obese mice, maintained on HFD for 8 weeks, receiving only EODF and no DHB treatment. • Group B3 (GB3): Obese mice, maintained on HFD for 8 weeks, receiving only DHB treatment and no EODF. • Group B4 (GB4): Obese mice, maintained on HFD for 8 weeks, receiving DHB treatment and EODF combination.
The total experimental time is 19 weeks, including two periods: an elevent-week induction period and a subsequent eight-week treatment period.
HFD fed male mice in groups at 8 weeks of age were randomly assigned into either ad libitum, or EODF groups on a per cage basis. All cage bedding was changed to paper bedding for the duration of the model. Mice in the EODF group had total deprivation of food and ad libitum access to water from 1200 h-1200 h on alternate days with ad libitum food and water access. EODF cages were changed upon induction of fasting. Ad libitum control mice cages were changed every other day with fresh food provided.
DHB was administered daily via intragastric injection (i.g.) according to a level of 70 mg/kg body weight. Mice not receiving DHB were given orally with ultrapure water.
Each mouse's body weight is measured weekly during the study at 1200 h. Each animal's body composition was measured and recorded before the treatment and weekly during the study at 1200 h by Nuclear Magnetic Resonance Body Composition Analyzer in accordance with manufacturer's instruction. After sacrifice, subcutaneous fat and para-renal fat were weighed.

[2] = Plasma TCHO, TG, LDL, VLDL measured with kits at end of study; type: in vivo, C57BL/6 male mice; conditions: HFD obese mice, DHB 70 mg/kg i.g. daily with or without EODF vs no DHB
Description: 50 C57BL/6 male mice aged about 8 weeks, are randomly assigned to five study groups (GA, GB1, GB2, GB3, GB4) of ten mice each (one cage, n=5 per condition). Mice were maintained in a pathogen free condition under a strict 12 h light/dark cycle (0600/1800 h) with 12-15 cycles/hour of air change. Mice were provided with access to respective feed and water ad libitum as per experimental conditions. Mice were housed under controlled laboratory conditions of temperature and humidity at 23±2° C. and 50±10% RH, respectively. Each study group consisted of ten animals, and treatment details of the individual study groups are given below: • Group A (GA, NC): Normal mice, maintained on normal diet (standard chow, 12% calories from fat; 23% calories from protein and 65% calories from carbohydrates) for 8 weeks, receiving neither EODF nor DHB treatment. • Group B1 (GB1): Obese mice, maintained on high fat diet (HFD, 60% calories from fat, 20% calories from protein, 20% calories from carbohydrate) for 8 weeks, receiving neither EODF nor DHB treatment. • Group B2 (GB2): Obese mice, maintained on HFD for 8 weeks, receiving only EODF and no DHB treatment. • Group B3 (GB3): Obese mice, maintained on HFD for 8 weeks, receiving only DHB treatment and no EODF. • Group B4 (GB4): Obese mice, maintained on HFD for 8 weeks, receiving DHB treatment and EODF combination. DHB was administered daily via intragastric injection (i.g.) according to a level of 70 mg/kg body weight. Mice not receiving DHB were given orally with ultrapure water. At the end of the study blood was collected from all test groups and a various clinical parameter: plasma total cholesterol (TCHO), triglyceride (TG), low density lipoprotein (LDL), very low-density lipoprotein (VLDL) were measured using corresponding kits according to the manufacturers' instructions.

[3] = Serum insulin and leptin by ELISA at end of treatment; type: in vivo, C57BL/6 male mice; conditions: HFD obese mice
Description: 50 C57BL/6 male mice aged about 8 weeks, are randomly assigned to five study groups (GA, GB1, GB2, GB3, GB4) of ten mice each (one cage, n=5 per condition). Mice were maintained in a pathogen free condition under a strict 12 h light/dark cycle (0600/1800 h) with 12-15 cycles/hour of air change. Mice were provided with access to respective feed and water ad libitum as per experimental conditions. Mice were housed under controlled laboratory conditions of temperature and humidity at 23±2° C. and 50±10% RH, respectively. Each study group consisted of ten animals, and treatment details of the individual study groups are given below: • Group A (GA, NC): Normal mice, maintained on normal diet (standard chow, 12% calories from fat; 23% calories from protein and 65% calories from carbohydrates) for 8 weeks, receiving neither EODF nor DHB treatment. • Group B1 (GB1): Obese mice, maintained on high fat diet (HFD, 60% calories from fat, 20% calories from protein, 20% calories from carbohydrate) for 8 weeks, receiving neither EODF nor DHB treatment. • Group B2 (GB2): Obese mice, maintained on HFD for 8 weeks, receiving only EODF and no DHB treatment. • Group B3 (GB3): Obese mice, maintained on HFD for 8 weeks, receiving only DHB treatment and no EODF. • Group B4 (GB4): Obese mice, maintained on HFD for 8 weeks, receiving DHB treatment and EODF combination. DHB was administered daily via intragastric injection (i.g.) according to a level of 70 mg/kg body weight. Mice not receiving DHB were given orally with ultrapure water. Serum levels of insulin and leptin were determined at the end of the treatment period by standard ELISA methods. Since one key feature of obesity is the development of insulin and leptin resistance resulting in an elevation of the circulating levels of these two hormones as a consequence of compensatory physiological responses to insulin and leptin insensitivity, thus leptin is one of the major adipocytokines associated with maintaining glucose homeostasis.

[4] = in vitro; cited from earlier work
[5] = DHB 70 mg/kg i.g. daily + EODF combination vs EODF only
[6] = DHB + EODF combination vs EODF only

Compound: COc1ccc2c(c1OC)CN1CCc3cc4c(cc3C1=C2)OCO4 [DHB, Dihydroberberine]
- body fat [1, 5]: reducing
- body weight [1, 5]: reducing; also recorded: greater effects on weight loss
- para-renal fat [1, 5]: reducing
- subcutaneous fat [1, 5]: reducing
- body composition ([1]; DHB 70 mg/kg i.g. daily, 8 weeks, with or without EODF, vs same HFD with and without EODF, no DHB, FIGS. 1-4): greater reduction in body composition
- TG ([2]; FIG. 5): lower levels
- TCHO ([2]; FIG. 6): lower levels
- LDL ([2]; FIG. 7): lower levels
- VLDL ([2]; FIG. 8): lower levels
- insulin resistance (serum levels of insulin) ([3]; DHB 70 mg/kg i.g. daily with or without EODF vs no DHB, FIG. 9): improved
- leptin resistance (serum levels of leptin) ([3]; DHB 70 mg/kg i.g. daily with or without EODF vs no DHB, FIG. 10): improved
- improving insulin resistance [3, 6]: greater effects
- improving leptin resistance [3, 6]: greater effects
- intestinal absorption rate relative to BBR [4]: five times higher
